# Measured values as given in US20250230146A1, “CARBOCYCLIC NUCLEOSIDE, OLIGONUCLEOTIDE AND PREPARATION METHODS THEREFOR AND MEDICAL USES THEREOF” (REDFIELD PHARMACEUTICAL INC., priority 2023, published 2025).
# Legend:
# [1] = system: sense strand (5′-AAAAAAAAAA-3′; SEQ ID NO: 4); assay: Melting temperature (Tm) test of antisense strand annealed with sense strand; details: duplex with sense strand 5′-AAAAAAAAAA-3′; UV absorption at 260 nm
# Procedure: A mixture of 1 mL of the sense strand (0.5 OD/mL) and 1 mL of the antisense strand (0.5 OD/mL) was mixed and stirred evenly, heated at 90° C. for 10 min, and then cooled to room temperature. A Tm value of the sample was measured using an ultraviolet spectrophotometer (Agilent, Cary 3500 UV-Vis), the sample was placed in a cuvette with a cap and a temperature probe, a temperature was set to be raised from 20-25° C. to 70-80° C. at a rate of 0.5° C. or 1.0° C. per minute, and ultraviolet absorption at 260 nm was measured at an interval of 0.5° C.
# [2] = system: snake venom phosphodiesterase (Crotalus admanteus venom phosphodiesterase (CAVP))
substance,measurement,setting,value
5′-TTTTTTTTTT-3′ [Control antisense strand],Tm,[1],43 °C
same,degradation by nuclease (in words),[2],almost completely degraded
